# Experiments:
# [1] = test system: 265-nucleotide full-length T. maritima lysine riboswitch; experiment: primer extension assay (reverse transcriptase pausing at A169); format: biochemical, Thermotoga maritima
# Text: FIG. 39. Interactions of lysine and its analogs with the T. maritima lysine riboswitch studied by primer extension. a and b, Representative gels of riboswitch titration by lysine (a) and AEC (b). Reverse transcriptase (RT) pauses three nucleotides prior to the j unction at A169 in the context of the full-length riboswitch if the riboswitch-binding ligand is present in the reaction mixture. c, Representative titration experiments used for calculations of the ligand concentration (FIG. 4c) at which RT pausing is half-maximally attained. The experimental data points for lysine and AEC are from panels (a) and (b). The data were fitted to equation (1), which is based on the equation describing a bimolecular equilibrium, by the nonlinear least squares analysis. In the equation
# θ is the fraction of RT pausing, No and Lo are RNA and ligand concentrations, respectively, and P50 is the apparent ligand concentration at which RT pausing is half-maximally attained. The P50 value for the lysine-induced RT pausing 5.50±0.53/−1M (mean±s.d.) (n=2) is similar to the Kd value 4.03±0.34/−1M (mean±s.d.) (n=2) determined by the equilibrium dialysis assay. The relative differences between the P50 values for lysine and its analogs are in overall agreement with the relative differences obtained from the Kd values for lysine and its analogs determined for the B. subtilis lysine riboswitch in ref. 5.
# Primer extension experiments were performed using 265-nucleotide full-length riboswitch. The 32P-labelled 13-mer DNA oligonucleotide (100,000 c.p.m.), complementary to nucleotides 253-265 of RNA, was annealed to the 39 end of RNA (final RNA concentration […] in the assay). Primer extension was conducted in […] volume with 40 U of moloney murine leukaemia virus reverse transcriptase in 50 mM Na-HEPES, pH 7.9, 2 mM MgCl2, and variable concentrations of NaCl and KCl (FIG. 4), with or without a tenfold excess of lysine over RNA. After 30 min incubation at 37° C., the reactions were precipitated with ethanol, dissolved in loading buffer and analysed by 10% PAGE. Efficiency of lysine-induced pausing of reverse transcriptase at nucleotide A169 was quantified using FLA-7000 PhosphorImager and Image Gauge software (Fujifilm). Band intensities from independent experiments were averaged after gel-loading correction, background subtraction and normalization. The primer extension assay in the presence of lysine analogues was performed in 50 mM Na-HEPES, pH 7.9, 2 mM MgCl2, 50 mM KCl, and lysine analogues in the range 1028-1022 M. The data were fitted using a bimolecular equilibrium equation (Supplementary FIG. 12) and the resulting P50 values are reported in FIG. 4c. Reverse transcriptase sequencing reactions were run in parallel.
# [2] = test system: mRNA that contains the FMN riboswitch; conditions: used at a 17-fold higher concentration than FMN; cited from earlier work
# [3] = test system: 112-nucleotide F. nucleatum FMN riboswitch; experiment: fluorescent binding assay with the 112-nucleotide F. nucleatum FMN riboswitch; conditions: for Kd: read-out: dissociation constants (mean s.d.), 112-nucleotide riboswitch, 2 mM MgCl2 and 100 mM KCl
# [4] = target: 220-nucleotide full-length F. nucleatum FMN riboswitch; experiment: fluorescent binding assay with the 220-nucleotide full-length F. nucleatum impX FMN riboswitch; parameters: species or system Fusobacterium nucleatum; conditions: 220-nucleotide RNA; read-out: Kd (mean±s.d.)
# [5] = test system: B. subtilis lysine riboswitch; experiment: equilibrium dialysis, B. subtilis lysine riboswitch; format: binding; conditions: Bacillus subtilis riboswitch
# Procedure: (§1) The assay was performed as described in Sudarsan, et al., An mRNA structure in bacteria that controls gene expression by binding lysine, Genes Dev. 17:2688-2697 (2003) using 5 kDa DispoEquilibrium DIALYZERS (Harvard Apparatus). In brief, […] RNA (from 0.001 to 20 mM) in the in-line probing buffer was placed in chamber A of the dialyser and equilibrated for 16 h at room temperature against chamber B containing […] 3H-labelled lysine (1 nM; 6,000 c.p.m.) in the same buffer. The amount of bound lysine was calculated by subtracting the radioactivity counts of chamber B from chamber A. The data were fitted using a bimolecular equilibrium equation, assuming that the free lysine concentration is negligible.
# [6] = test system: T. maritima lysine riboswitch; experiment: equilibrium dialysis, T. maritima lysine riboswitch; format: binding, Thermotoga maritima
# Procedure: as §1
# [7] = test system: 143-nucleotide B. subtilis FMN riboswitch; experiment: fluorescent binding assay with the 143-nucleotide B. subtilis FMN riboswitch; conditions: Bacillus subtilis riboswitch
# Procedure: FIG. 9. The metabolite-sensing domain of the B. subtilis FMN riboswitch. a, The sequence of the 143-nucleotide fragment of B. subtilis riboswitch 5 is presented as a secondary structure schematic, which is based on the consensus secondary structure of the FMN riboswitches with small corrections from the three-dimensional structure of the F nucleatum riboswitch. b, Binding of FMN and its analogs to the 143-nucleotide B. subtilis FMN riboswitch. All measurements were performed using fluorescent assay.
structure (smiles),measurement,setting,value
"NCCSC[C@H](N)C(=O)O [AEC, S-(2-aminoethyl)-L-cysteine]",binding to the riboswitch relative to lysine in primer extension,[1],weaker binding
"Cc1cc2nc3c(=O)[nH]c(=O)nc-3n(C[C@H](O)[C@H](O)[C@H](O)COP(=O)(O)OP(=O)(O)OC[C@H]3O[C@@H](n4cnc5c(N)ncnc54)[C@H](O)[C@@H]3O)c2cc1C [FAD, flavin adenine dinucleotide]",inhibition of transcription in vitro,[2],inhibited
"Cc1cc2nc3c(=O)[nH]c(=O)nc-3n(C[C@H](O)[C@H](O)[C@H](O)COP(=O)(O)O)c2cc1C [FMN, flavin mononucleotide]",binding to the riboswitch in the presence of cobalt hexamine,[3]; cobalt hexamine in place of Mg2+,equally well
same,reduction of binding affinity in the presence of iridium hexamine,[3]; iridium hexamine in place of Mg2+,about 15 fold
same,Kd,[4],0.134 ± 0.0139 µM
NCCOC[C@H](N)C(=O)O [L-4-oxalysine],binding to the riboswitch relative to lysine in primer extension,[1],weaker binding
N=C(N)NCCCC[C@H](N)C(=O)O [L-homoarginine],binding to the riboswitch relative to lysine in primer extension,[1],weaker interactions than lysine
CC(=N)NCCCC[C@H](N)C(=O)O [N6-1-iminoethyl-L-lysine],binding to the riboswitch relative to lysine in primer extension,[1],weaker interactions than lysine
Cc1cc2nc3c(=O)[nH]c(=O)nc-3n(C)c2cc1C [lumiflavin],effect of additional removal of the ribityl moiety on binding affinity,[3]; compared with riboflavin,reduces binding affinity to only a very small extent
same,Kd,[3],59 µM
"NCCCC[C@H](N)C(=O)O [lysine, L-lysine]",lysine binding affinity when K+ was omitted or replaced by Na+,[5],significantly decreased
same,decrease of reverse transcriptase pause after replacement of K+ by Na+,[1]; in the presence of lysine,33 fold
same,lysine binding affinity when K+ was omitted or replaced by Na+,[6],significantly decreased
Cc1cc2nc3c(=O)[nH]c(=O)nc-3n(C[C@H](O)[C@H](O)[C@H](O)CO)c2cc1C [riboflavin],decrease of binding affinity compared with binding of FMN,[3]; F. nucleatum riboswitch,"about 1,000 fold"
same,Kd,[3],39.8 µM
same,decrease of binding affinity compared with binding of FMN,[7],"about 1,000 fold"

# Reference: patent publication US20110237549A1, “MODULATORS OF RNA RIBOSWITCHES” (MEMORIAL SLOAN KETTERING CANCER CENTER, priority 2008, published 2011)
